Measured values from patent US7816386B2, “Cinnamic, phenylpropiolic and phenylpropanoic acid derivatives useful as anti-tumor agents” (Sigma-Tau Industrie Farmaceutiche Riunite S.p.A., priority 2005, dated 2010).
Structures can show the parent of a compound that is named as a salt. Where two headings read alike, the source gives them in different places.

Columns and labels:
[1] = test system: NCI-H460 non-small cell carcinoma cells; assay: Cytotoxicity on NCI-H460 tumour cells (sulphorodamine B); format: cell-based, human; details: for IC50: 24 h treatment, then other 48 h in drug-free medium, sulphorodamine B; for cytotoxic effect on survival of NCI-H460 tumour cells (in words): comparison among the compounds
Method: (§1) To test the effects of the compounds on cell growth, NB4 human promyelocytic leukaemia, NCI-H460 non-small cell carcinoma cells and HCT-116 human colon carcinoma cells were used. NB4 and NCI-H460 tumour cells were grown RPMI 1640 containing 10% fetal bovine serum (GIBCO), whereas HCT-116 tumour cells were grown in McCoy's 5A containing 10% fetal bovine serum (GIBCO).
(§2) Tumour cells were seeded in 96-well tissue culture plates (Corning) at approximately 10% confluence and were allowed to attach and recover for at least 24 h. […] The plates were incubated for 24 h at 37° C. At the end of the treatment, for NB4 tumour cells in suspension, the procedure was performed as follows: medium culture was removed by centrifugation of the plates at 1600×g for 10 min and the surnatant was removed. 250 μl PBS were added, then the plates were centrifuged at 1600×g for 10 min, the surnatant was removed. 200 μl/well of medium culture RPMI 1640 containing 10% FCS were added and the plates were incubated at 37° C. for other 48 h. The plates were centrifuged again at 1600×g for 10 min, the medium culture was removed and 200 μl PBS and 50 μl of cold 80% TCA were added. The plates were incubated on ice for at least 1 h. TCA was removed, the plates were washed 3 times for immersion in distilled-water and dried on paper and at 40° C. for 5 min. Then 200 μl of 0.4% sulphorodamine B in 1% acetic acid were added. The plates were incubated at room temperature for other 30 min. Sulphorodamine B was removed, the plates were washed for immersion in 1% acetic acid for 3 times, then they were dried on paper and at 40° C. for 5 min. Then 200 μl Tris 10 mM were added, the plates were kept under stirring for 20 min. The survival cell was determined as optical density by a Multiskan spectrofluorimeter at 540 nm. For the tumour cells in adhesion (NCI-H460 and HCT-116), the procedure was as above mentioned, except that at the end of the treatment, the plates were washed by remotion of the surnatant and addition of PBS 3 times without centrifugation. Also the last day of the assay, the surnatant was removed without centrifugation.
(§3) The amount of cells killed was calculated as the percentage decrease in sulphorodamine B binding compared with control cultures.

[2] = test system: HCT-116 human colon carcinoma cells; assay: Cytotoxicity on HCT-116 tumour cells (sulphorodamine B); format: cell-based; details: read-out: IC50 ± SD, HCT-116 (concentration which inhibits the 50% of cell survival), 24 h treatment, then other 48 h in drug-free medium
Method: as §1, §2, §3

[3] = test system: NB4 human promyelocytic leukaemia; assay: Cytotoxicity on NB4 tumour cells (sulphorodamine B); format: cell-based
Method: as §1, §2, §3

[4] = read-out: IC50 ± SD, NB4 (concentration which inhibits the 50% of cell survival), NB4 tumour cells, 24 h treatment, then other 48 h in drug-free medium
[5] = Homo sapiens, NCI-H460, read-out: IC50 ± SD, NCI-H460 (concentration which inhibits the 50% of cell survival), NCI-H460 tumour cells
[6] = Homo sapiens, read-out: IC50 ± SD, NB4 (concentration which inhibits the 50% of cell survival), NB4 tumour cells, 24 h treatment, then other 48 h in drug-free medium

Work on `O=C(/C=C/c1ccc(C=NOCc2c(F)c(F)c(F)c(F)c2F)cc1)NO` [ST2986, (2E)-N-hydroxy-3-[4-({[(pentafluorobenzyl)oxy]imino}-methyl)phenyl]-acryl-amide] yielded an IC50 ([1]; read-out: IC50 ± SD, NCI-H460 (concentration which inhibits the 50% of cell survival), NCI-H460 tumour cells) of 1600 ± 70 nM, an IC50 [2] of 2400 ± 100 nM and an IC50 [3, 4] of 700 ± 70 nM.
For `O=C(CCc1ccc(C=NOCc2ccc([N+](=O)[O-])cc2)cc1)NO` [ST3330, N-hydroxy-3-[4-({[(4-nitrobenzyl)oxy]imino}methyl)phenyl]propanamide], the IC50 [1, 5] was 7700 ± 1000 nM, the “cytotoxic effect on survival of NCI-H460 tumour cells (in words)” value (“cytotoxic effect on survival” for short) ([1]; NCI-H460 tumour cells) was “minor cytotoxic effect” and the IC50 ([2]; Homo sapiens) was 3100 ± 100 nM. For the same molecule, the IC50 [3, 6] was 950 ± 60 nM.
`C=CCON=Cc1ccc(/C=C/C(=O)NO)cc1` [ST2984, (2E)-N-hydroxy-3-(4-{[(allyloxy)imino]methyl}phenyl)acrylamide] showed an IC50 [1, 5] of 3200 ± 90 nM, an IC50 ([2]; Homo sapiens) of 3500 ± 70 nM and an IC50 [3, 6] of 1400 to 2900 nM. The IC50 [3, 4] was 1400 ± 70 nM.
`O=C(/C=C/c1ccc2[nH]ccc2c1)NO` [ST2880, (2E)-N-hydroxy-3-(1H-indol-5-yl)acrylamide] was tested, and the IC50 [1, 5] was 5900 ± 500 nM, the “cytotoxic effect on survival” value ([1]; NCI-H460 tumour cells) was “minor cytotoxic effect” and the IC50 ([2]; Homo sapiens) was 2700 ± 300 nM. The IC50 [3, 6] was 1400 to 2900 nM and the IC50 [3, 4] was 1800 ± 20 nM.
In the case of `COC(=O)c1ccc(CON=Cc2ccc(/C=C/C(=O)NO)cc2)cc1` [ST3049, (2E)-N-hydroxy-3-[4-({[(4-methoxycarbonylbenzyl)oxy]imino}-methyl)phenyl]-acrylamide], the IC50 [1, 5] is reported as 1700 ± 100 nM, the IC50 ([2]; Homo sapiens) is reported as 1700 ± 100 nM and the IC50 [3, 6] is reported as 600 to 800 nM. It also gave an IC50 [3, 4] of 800 ± 90 nM.
Work on `O=C(/C=C/c1ccc(C=NNC(=O)c2ccc(Cl)cc2)cc1)NO` [ST2888, (2E)-N-hydroxy-3-(4-{[(4-chlorobenzoyl)hydrazono]-methyl}phenyl)acrylamide] yielded an IC50 [1, 5] of 3400 ± 300 nM, an IC50 ([2]; Homo sapiens) of 1800 ± 100 nM and an IC50 [3, 6] of 600 to 800 nM. The IC50 [3, 4] was 800 ± 20 nM.
In the case of `O=C(/C=C/c1ccc(C=NOCc2ccc([N+](=O)[O-])cc2)cc1)NO` [ST2987, (2E)-N-hydroxy-3-[4-({[(4-nitrobenzyl)oxy]imino}-methyl)phenyl]acrylamide], the IC50 [1, 5] is reported as 2600 ± 100 nM, the IC50 ([2]; Homo sapiens) is reported as 1200 ± 200 nM and the IC50 [3, 6] is reported as 600 to 800 nM. For the same molecule, the IC50 [3, 4] was 800 ± 10 nM.
`O=C(O)/C=C/c1ccc(C=NOCc2ccccc2)cc1` [ST3076, (2E)-3-(4-{[(benzyloxy)imino]methyl}phenyl)acrylic acid] was tested, and the IC50 ([2]; Homo sapiens) was greater than 20000 nM and the IC50 [3, 6] was greater than 20000 nM.
For `O=C(/C=C/c1ccc(C=NO)cc1)NO` [ST2983, (2E)-N-hydroxy-3-{4-[(hydroxyimino)methyl]phenyl}acrylamide], the IC50 [1, 5] was 6300 ± 400 nM, the “cytotoxic effect on survival” value ([1]; NCI-H460 tumour cells) was “minor cytotoxic effect” and the IC50 ([2]; Homo sapiens) was 3500 ± 300 nM.
`O=C(/C=C/c1ccc(C=NOCCN2CCOCC2)cc1)NO` [ST3050, (2E)-N-hydroxy-3-{4-[(2-morpholin-4-ylethoxyimino)methyl]-phenyl}-acryl-amide] gave an IC50 [1, 5] of 2900 ± 400 nM, an IC50 ([2]; Homo sapiens) of 1800 ± 100 nM and an IC50 [3, 6] of 1400 to 2900 nM. It also gave an IC50 [3, 4] of 1700 ± 200 nM.
Work on `O=C(O)/C=C/c1ccc(C=NOCc2ccc([N+](=O)[O-])cc2)cc1` [ST3075, (2E)-3-[4-({[(4-nitrobenzyl)oxy]imino}-methyl)phenyl]acrylic acid] yielded an IC50 [1, 5] of 21300 ± 3000 nM, an IC50 ([2]; Homo sapiens) greater than 20000 nM and an IC50 [3, 6] greater than 20000 nM.
`Nc1ccccc1NC(=O)/C=C/c1ccc(C=NOCc2ccc([N+](=O)[O-])cc2)cc1` [ST3070, (2E)-N-(2-aminophenyl)-3-[4-({[(4-nitrobenzyl)oxy]imino}-methyl)phenyl]-acrylamide] gave an IC50 [1, 5] of 200000 nM, an IC50 ([2]; Homo sapiens) of 33400 ± 3900 nM and an IC50 [3, 6] greater than 20000 nM.
Work on `O=C(/C=C/c1ccc(C=NOCc2ccccc2)cc1)NO` [ST2840, (2E)-3-(4-{[(benzyloxy)imino]methyl}phenyl)-N-hydroxyacrylamide] yielded an IC50 [1, 5] of 1600 ± 100 nM, an IC50 ([2]; Homo sapiens) of 2800 ± 200 nM and an IC50 [3, 6] of 600 to 800 nM. It also gave an IC50 [3, 4] of 600 ± 6 nM.
Work on `Nc1ccccc1NC(=O)/C=C/c1ccc(C=NOCCN2CCOCC2)cc1` [ST3573, (2E)-N-(2-Amino-phenyl)-3-{4-[(2-morpholin-4-yl-ethoxyimino)methyl]-phenyl}-acrylamide hydrochloride] yielded an IC50 [1, 5] greater than 20000 nM, an IC50 ([2]; Homo sapiens) greater than 20000 nM and an IC50 [3, 6] of 8870 ± 600 nM.
In the case of `Cl.O=C(/C=C/c1cccc(C=NOCCN2CCOCC2)c1)NO` [ST3576, (2E)-N-hydroxy-3-{3-[(2-morpholin-4-ylethoxyimino)methyl]-phenyl}-acryl-amide hydrochloride], the IC50 [1, 5] is reported as 6600 ± 800 nM, the “cytotoxic effect on survival” value ([1]; NCI-H460 tumour cells) is reported as “minor cytotoxic effect” and the IC50 ([2]; Homo sapiens) is reported as 4000 ± 500 nM. For the same molecule, the IC50 [3, 6] was 1400 to 2900 nM and the IC50 ([3]; read-out: IC50 ± SD, NB4 (concentration which inhibits the 50% of cell survival), NB4 tumour cells, 24 h treatment, then other 48 h in drug-free medium, hydrochloride) was 1890 ± 80 nM.
With `O=C(/C=C/c1ccc(C=NOc2ccccc2)cc1)NO` [ST2985, (2E)-N-hydroxy-3-{4-[(phenoxyimino)methyl]phenyl}acrylamide] the IC50 [1, 5] was 5100 ± 300 nM, the “cytotoxic effect on survival” value ([1]; NCI-H460 tumour cells) was “minor cytotoxic effect” and the IC50 ([2]; Homo sapiens) was 3700 ± 400 nM. It also gave an IC50 [3, 6] of 1400 to 2900 nM and an IC50 [3, 4] of 2700 ± 90 nM.
